We go through 5 compounds from patent publication US12162879B2, “Pyridopyrimidine derivative, preparation method therefor and medical use thereof” (Jiangsu Hengrui Medicine Co., Ltd., priority 2018, dated 2024).

Molecules are shown by their SMILES.

One data set has as its target human TLR8 (Homo sapiens (Human), UniProt Q9NR97). The experiment in a line: Agonist activity on human TLR8 in HEK-Blue hTLR8 stably transfected cells. The class given is cell-based. As to conditions: 16 hours, OD 620 nm. The method, then: The agonist effect of the compounds of the present invention on hTLR8 expressed by the HEK-Blue™ hTLR8 stably transfected cells was determined by the following experimental method.
• 1. DMEM(Gibco, 10564-029); • 2. Fetal bovine serum (GIBCO, 10099); • 3. Trypan blue solution (Sigma, T8154-100 ML); • 4. Flexstation 3 multi-function microplate reader (Molecular Devices); • 5. HEK-Blue™ hTLR8 cell line (InvivoGen, hkb-hTLR8), or HEK-Blue™ hTLR7 cell line (InvivoGen, hkb-hTLR7); • 6. HEK-Blue detection reagent (InvivoGen, hb-det3); and • 7. Phosphate buffer solution (PBS) pH 7.4 (Shanghai Basalmedia Technologies Co., Ltd., B320). II. Experimental Procedures a. Determination of Agonist Activity on Human TLR8
A bag of HEK-Blue detection dry powder was dissolved in 50 ml of water free of endotoxin, and the solution was then placed in an incubator at 37° C. for 10 minutes followed by sterile filtration to prepare a HEK-Blue detection medium. The compound was firstly formulated into a 20 mM stock solution, then diluted with pure DMSO to a maximum concentration of 6×10^6 nM, and a total of 10 points were obtained by a 3-fold gradient dilution. The above formulated compound was firstly diluted 20-fold with the medium, then 20 μl of the diluted compound was added to each well.
The supernate was removed from the HEK-Blue™ hTLR8 cells, to which 2-5 ml of pre-warmed PBS was then added. The cells were placed in an incubator for 1-2 minutes, gently pipetted, and counted by trypan blue staining. The cells were re-suspended in the HEK-Blue detection medium to adjust the concentration to 2.2×10^5 cells/ml. 180 μl of cells was added to the above 96-well plate comprising 20 μl of the compound, and incubated at 37° C. for 16 hours.
The corresponding OD values were obtained by a microplate reader at a wavelength of 620 nm, and the EC50 values of the compounds were calculated by Graphpad Prism.

The next data set concerns the target hERG potassium channel (Homo sapiens (Human), UniProt Q12809). The experiment in a line: Blocking effect on hERG potassium current, automatic patch clamp (Patchliner) on HEK293-hERG stable cell line. The class given is cell-based. The method, then:
The blocking effect of the compounds of the present application on hERG potassium current was determined using an automatic patch-clamp on a stable cell line transfected with hERG potassium channels.
The HEK293 cell line was transfected with pCDNA3.1(+) that had constructed the hERG gene. The monoclonal HEK293-hERG stable cell line was screened by adding G418. The HEK293-hERG stable cell line was subcultured at a density of 1:4 in MEM/EBSS medium (10% FBS, 400 μg/mL G418, 1% MEM non-essential amino acid solution (100×), 1% sodium pyruvate solution) and cultured within 48 to 72 hours for the automatic patch clamp experiment. On the day of the experiment, the cells were digested with 0.25% trypsin (life technologies, 12563-029), collected by centrifugation and resuspended with extracellular fluid (140 mM NaCl, 4 mM KCl, 1 mM MgCl2, 2 mM CaCl2, 5 mM MD glucose monohydrate, 10 mM HEPES, pH 7.4, 298 mOsmol) to obtain a cell suspension. The cell suspension was placed on the cell bank of the Patchliner instrument, the Patchliner instrument used a negative pressure controller to apply the cells to the chip (NPC-16), and the negative pressure attracted individual cells to the wells of the chip. When the whole cell mode was formed, the instrument got the hERG current according to the set hERG current-voltage program, and then the instrument automatically perfused the compound from low to high concentration. The currents at each concentration of the compound and the blank control current were analyzed by the HEAK EPC 10 patch clamp amplifier (Nanion), Pathlinersoftware and data analysis software provided by Pathcontrol HTsoftware.
(Block of hERG is tested as a sign of cardiac risk.)

Data set [1] concerns the target CYP3A4 (midazolam metabolite site) (Homo sapiens (Human), UniProt P08684). The experiment in a line: Inhibition of enzyme activity of midazolam metabolite site of CYP3A4 in human liver microsome. The class given is in vitro ADME. Conditions: midazolam probe substrate, 30 minutes. How it is done:
The effect of the compounds of the present invention on the enzyme activity of midazolam metabolite site of CYP3A4 in human liver microsomes was determined by the following experimental method.
• 1. Phosphate buffer solution (PBS) (Shanghai Basalmedia Technologies Co., Ltd., B320, similarly hereinafter); • 2. NADPH (Sigma N-1630); • 3. Human liver microsome (Corning Gentest); • 4. ABI QTrap 4000 liquid chromatograph/mass spectrometer (AB Sciex); • 5. Inertsil C8-3 column, 4.6×50 mm, 5 μm (Dikma Technologies Inc., USA); and • 6. CYP probe substrate (15 μM midazolam, SIGMA UC429) and positive control inhibitor (ketoconazole, SIGMA K1003). II. Experimental Procedures
100 mM PBS buffer was formulated, which was then used to formulate 2.5 mg/ml human microsome solution and 5 mM NADPH solution. The 5× concentration of the compound working solution was diluted with PBS in gradients (150, 50, 15, 5, 1.5, 0.15, 0.015, 0 μM). The 5× concentration of ketoconazole working solution was diluted with PBS in gradients (150, 50, 15, 5, 1.5, 0.15, 0.015, 0 μM). Midazolam working solution was diluted with PBS to a concentration of 15 μM.
20 μl of 2.5 mg/ml microsome solution, 20 μl of 15 μM midazolam working solution, 20 μl of MgCl2 solution and 20 μl of the compound working solution (150, 50, 15, 5, 1.5, 0.15, 0.015, 0 μM, different reaction systems for each concentration) were mixed well. For the positive control group, the compound was replaced with the same concentration of ketoconazole. The mixture together with 5 mM NADPH solution was pre-incubated at 37° C. for 5 minutes. After 5 minutes, 20 μl of NADPH was added to each well, the reaction was initiated, and the plate was incubated for 30 minutes. All the incubated samples were present in duplicate. After 30 minutes, 250 μl of acetonitrile containing internal standard (100 ng/ml camptothecin) was added to all samples, mixed well, shaken at 800 rpm for 10 minutes, and then centrifuged at 3700 rpm for 10 minutes. 80 μl of the supernatant was taken and analyzed by LC-MS/MS.
The data was calculated by Graphpad Prism to obtain the IC50 values of the compounds on the midazolam metabolite site of CYP3A4, which are shown in Table 2.
(Microsomes from liver hold many membrane-bound enzymes, among them those of drug oxidation.)

Chain of hERG potassium channel (Q12809 whole entry): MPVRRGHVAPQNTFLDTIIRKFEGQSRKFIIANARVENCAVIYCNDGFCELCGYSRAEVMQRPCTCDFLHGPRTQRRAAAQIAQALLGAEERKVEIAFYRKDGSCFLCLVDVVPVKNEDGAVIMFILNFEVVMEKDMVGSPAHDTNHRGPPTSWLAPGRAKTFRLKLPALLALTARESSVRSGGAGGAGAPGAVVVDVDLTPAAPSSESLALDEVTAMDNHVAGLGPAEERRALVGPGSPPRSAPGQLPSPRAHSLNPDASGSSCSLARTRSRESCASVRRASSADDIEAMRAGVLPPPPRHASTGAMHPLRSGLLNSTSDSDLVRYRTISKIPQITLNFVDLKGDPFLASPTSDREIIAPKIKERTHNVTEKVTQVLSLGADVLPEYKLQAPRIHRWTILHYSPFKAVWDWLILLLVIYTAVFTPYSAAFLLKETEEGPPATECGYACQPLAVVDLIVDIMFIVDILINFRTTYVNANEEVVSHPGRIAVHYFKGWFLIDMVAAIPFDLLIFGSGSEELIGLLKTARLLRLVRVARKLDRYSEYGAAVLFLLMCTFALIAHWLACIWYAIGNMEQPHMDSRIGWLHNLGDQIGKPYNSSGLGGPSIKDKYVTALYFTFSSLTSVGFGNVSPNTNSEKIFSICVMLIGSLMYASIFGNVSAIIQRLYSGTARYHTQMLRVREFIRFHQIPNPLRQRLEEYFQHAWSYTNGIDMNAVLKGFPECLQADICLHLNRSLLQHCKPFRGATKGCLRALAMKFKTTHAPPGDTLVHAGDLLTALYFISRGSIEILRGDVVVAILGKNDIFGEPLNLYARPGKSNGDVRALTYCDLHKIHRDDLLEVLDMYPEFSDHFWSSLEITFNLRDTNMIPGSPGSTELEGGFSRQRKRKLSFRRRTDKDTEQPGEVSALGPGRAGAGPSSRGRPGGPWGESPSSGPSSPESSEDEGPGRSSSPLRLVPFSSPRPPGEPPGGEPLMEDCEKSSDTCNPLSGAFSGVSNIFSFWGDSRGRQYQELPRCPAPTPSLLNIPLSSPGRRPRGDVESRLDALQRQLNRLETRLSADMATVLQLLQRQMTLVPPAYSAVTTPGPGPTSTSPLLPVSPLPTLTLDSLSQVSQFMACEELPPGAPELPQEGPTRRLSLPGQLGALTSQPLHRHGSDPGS
Chain of human TLR8 (Q9NR97 27-1041): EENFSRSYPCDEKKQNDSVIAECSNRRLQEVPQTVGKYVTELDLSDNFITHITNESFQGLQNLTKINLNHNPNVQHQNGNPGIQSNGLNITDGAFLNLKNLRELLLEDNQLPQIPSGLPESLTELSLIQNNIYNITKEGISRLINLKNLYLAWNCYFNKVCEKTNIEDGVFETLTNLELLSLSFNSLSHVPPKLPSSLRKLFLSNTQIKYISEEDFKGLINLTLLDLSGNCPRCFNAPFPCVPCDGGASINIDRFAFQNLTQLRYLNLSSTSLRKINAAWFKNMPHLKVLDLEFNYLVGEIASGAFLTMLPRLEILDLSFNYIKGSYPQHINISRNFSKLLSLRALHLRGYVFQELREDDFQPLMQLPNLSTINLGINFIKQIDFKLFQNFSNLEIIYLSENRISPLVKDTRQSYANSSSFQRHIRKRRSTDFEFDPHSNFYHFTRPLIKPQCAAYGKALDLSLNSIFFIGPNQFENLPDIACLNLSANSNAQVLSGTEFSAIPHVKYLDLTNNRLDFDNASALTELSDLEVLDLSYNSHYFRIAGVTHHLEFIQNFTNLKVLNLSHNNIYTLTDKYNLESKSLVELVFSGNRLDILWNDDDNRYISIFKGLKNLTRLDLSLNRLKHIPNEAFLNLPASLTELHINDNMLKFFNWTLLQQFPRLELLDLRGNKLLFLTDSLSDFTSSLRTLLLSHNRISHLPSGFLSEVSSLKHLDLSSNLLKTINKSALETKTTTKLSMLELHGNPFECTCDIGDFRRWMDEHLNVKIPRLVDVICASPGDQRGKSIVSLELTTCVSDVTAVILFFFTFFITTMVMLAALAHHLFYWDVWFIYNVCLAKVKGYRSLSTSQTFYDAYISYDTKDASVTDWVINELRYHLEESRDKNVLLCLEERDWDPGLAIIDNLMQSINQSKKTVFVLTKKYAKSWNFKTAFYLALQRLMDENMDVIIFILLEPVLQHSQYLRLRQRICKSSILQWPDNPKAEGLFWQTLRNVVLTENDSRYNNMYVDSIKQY
Chain of CYP3A4 (midazolam metabolite site) (P08684 whole entry): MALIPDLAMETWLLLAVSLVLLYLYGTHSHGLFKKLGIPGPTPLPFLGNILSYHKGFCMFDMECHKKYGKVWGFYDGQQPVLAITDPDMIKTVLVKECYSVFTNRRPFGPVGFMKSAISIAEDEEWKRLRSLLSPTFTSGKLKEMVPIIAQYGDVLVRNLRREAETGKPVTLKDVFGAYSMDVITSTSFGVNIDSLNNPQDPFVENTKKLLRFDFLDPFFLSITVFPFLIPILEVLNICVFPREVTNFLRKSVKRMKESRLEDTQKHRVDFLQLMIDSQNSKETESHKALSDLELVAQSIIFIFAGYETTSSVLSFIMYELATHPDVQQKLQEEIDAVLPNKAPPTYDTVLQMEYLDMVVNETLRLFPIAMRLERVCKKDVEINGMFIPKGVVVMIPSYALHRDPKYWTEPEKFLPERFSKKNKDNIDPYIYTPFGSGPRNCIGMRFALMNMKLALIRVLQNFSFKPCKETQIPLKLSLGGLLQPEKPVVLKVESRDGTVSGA

What is called EC50 is the concentration giving half of the maximal effect. A word on the Emax: it is the maximal effect, on the per cent scale that the assay sets. As usually defined, the IC50 is the concentration at which inhibition is half-maximal. Turning to `CCCC[C@](C)(CO)Nc1nc(N)nc2cc(-c3ccc(CN4CCCC4)nc3)cnc12` [Example 2, (R)-2-((2-Amino-7-(6-(pyrrolidin-1-ylmethyl)pyridin-3-yl)pyrido[3,2-d]pyrimidin-4-yl)amino)-2-methylhexan-1-ol], the EC50 on human TLR8 was found to be 80 nM. The Emax at human TLR8 came out at 106%. Further, the half-maximal inhibitory concentration (IC50) on hERG potassium channel turned out to be 7 µM; in data set [1] it was 27 µM.
In the same order, the values of `CCCC[C@](C)(CO)Nc1nc(N)nc2cc(-c3ccc(C4CCN(C)CC4)nc3)cnc12` [Example 4, (R)-2-((2-Amino-7-(6-(1-methylpiperidin-4-yl)pyridin-3-yl)pyrido[3,2-d]pyrimidin-4-yl)amino)-2-methylhexan-1-ol] are 100 nM, 97%, 14 µM and above 30 µM.
In the same order, the values of `CCCCC(C)(CO)Nc1nc(N)nc2cc(-c3ccc(CN4CCN(C)CC4)nc3)cnc12` (centres unmarked) [Example 5, 2-((2-Amino-7-(6-((4-methylpiperazin-1-yl)methyl)pyridin-3-yl)pyrido[3,2-d]pyrimidin-4-yl)amino)-2-methylhexan-1-ol] are 270 nM, 110%, 17 µM and above 30 µM.
In the same order, the values of `CCCC[C@](C)(CO)Nc1nc(N)nc2cc(-c3ccc(CN4CCN(C)CC4)nc3)cnc12` [Example 6, (R)-2-((2-Amino-7-(6-((4-methylpiperazin-1-yl)methyl)pyridin-3-yl)pyrido[3,2-d]pyrimidin-4-yl)amino)-2-methylhexan-1-ol] are 100 nM, 107%, 26 µM and above 30 µM.
Regarding `CCCC[C@](C)(CO)Nc1nc(N)nc2cc(-c3cnc(C4CCN(C)CC4)nc3)cnc12` [Example 8, (R)-2-((2-Amino-7-(2-(1-methylpiperidin-4-yl)pyrimidin-5-yl)pyrido[3,2-d]pyrimidin-4-yl)amino)-2-methylhexan-1-ol], at human TLR8, a half-maximal effect (EC50) was put at 40 nM and the Emax came out at 114%. The compound also came in with an IC50 against hERG potassium channel above 30 µM. Moreover, in data set [1], the IC50 is above 30 µM.
